ChEMBL document CHEMBL5096192, “Recent advancements in anti-leishmanial research: Synthetic strategies and structural activity relationships” (Eur J Med Chem, 2021)
≈ marks a conversion by molar mass, not a printed value.

Key:
[1] = system: Leishmania panamensis; assay: Antileishmanial activity against Leishmania panamensis MHOM/CO/87/UA140pIR-GFP intracellular amastigotes infected in human U-937 cells assessed as parasite growth inhibition measured after 72 hrs by flow cytometry analysis; assay type: functional, organism-based; conditions: U-937, 72 h
[2] = system: Leishmania donovani; assay: Antileishmanial activity against Leishmania donovani Bob intracellular amastigotes assessed as parasite growth inhibition incubated for 72 hrs by LDH assay; assay type: functional, organism-based
[3] = Selectivity index, ratio of CC50 for cytotoxicity against human THP1 cells to IC50 for antileishmanial activity against promastigote form of Leishmania donovani; assay type: toxicity, cell-based; conditions: read-out: Ratio CC50/IC50
[4] = system: Leishmania donovani; assay: Antileishmanial activity against promastigote form of Leishmania donovani assessed as inhibition of promastigote growth incubated for 48 hrs by Alamar blue assay; assay type: functional, organism-based
[5] = system: Leishmania amazonensis; assay: Antileishmanial activity against promastigote form of Leishmania amazonensis IFLA/BR/1967/PH8 assessed as parasite growth inhibition incubated for 72 hrs by MTT assay; assay type: functional, organism-based; conditions: IFLA/BR/1967/PH8, 72 h
[6] = system: Trypanosoma cruzi; assay: Antitrypanosomal activity against Trypanosoma cruzi Tulahuen intracellular amastigotes transfected with beta-galactosidase infected in human U-937 cells assessed as viability of intracellular amastigotes measured after 72 hrs by spectrophotometry; assay type: functional, organism-based; conditions: U-937, 72 h
[7] = system: Leishmania donovani; assay: Antileishmanial activity against Leishmania donovani MHOM/IN/83/AG83 intracellular amastigotes infected in mouse RAW264.7 cells assessed as parasite growth inhibition incubated for 48 hrs by Giemsa staining based microscopic analysis; assay type: functional, organism-based; conditions: MHOM/IN/83/AG83, RAW264.7, 48 h
[8] = system: Leishmania donovani; assay: Antileishmanial activity against promastigote form of Leishmania donovani MHOM/IN/83/AG83 assessed as inhibition of promastigote growth incubated for 48 hrs by MTT reduction assay; assay type: functional, organism-based; conditions: MHOM/IN/83/AG83, 48 h
[9] = system: Leishmania donovani; assay: Antileishmanial activity against promastigote form of wild-type Leishmania donovani MHOM/80/IN/Dd8 assessed as inhibition of parasite growth incubated for 48 hrs by MTT assay; assay type: functional, organism-based; conditions: MHOM/80/IN/Dd8, 48 h
[10] = system: Leishmania major; assay: Antileishmanial activity against Leishmania major JISH118 promastigote infected in human THP-1 cells assessed as parasite growth inhibition measured after 48 hrs by Giemsa staining based analysis; assay type: functional, organism-based; conditions: JISH118, THP-1, 48 h
[11] = system: Leishmania infantum; assay: Antileishmanial activity against promastigote form of Leishmania infantum BH 46 assessed as parasite growth inhibition measured after 48 hrs by Celltiter-Glo assay; assay type: functional, organism-based; conditions: BH 46, 48 h
[12] = Cytotoxicity against BALB/c mouse peritoneal macrophages assessed as reduction in cell viability measured after 48 hrs by luminescence based CellTiter-Glo assay; assay type: toxicity, Peritoneal macrophage
[13] = system: Leishmania amazonensis; assay: Antileishmanial activity against Leishmania amazonensis IFLA/Br/67/PH8 intracellular amastigotes infected in BALB/c mouse peritoneal macrophages assessed as reduction in intracellular amastigotes incubated for 72 hrs by fluorometric analysis; assay type: functional, organism-based; conditions: IFLA/Br/67/PH8, 72 h
[14] = system: Leishmania amazonensis; assay: Antileishmanial activity against promastigote form of Leishmania amazonensis MHOM/BR/77/LTB0016 incubated for 24 hrs by MTT assay; assay type: functional, organism-based; conditions: MHOM/BR/77/LTB0016, 24 h
[15] = system: Leishmania infantum; assay: Antileishmanial activity against Leishmania infantum MHOM/MA/67/ITMAP263 intracellular amastigotes infected in primary peritoneal mouse macrophages assessed as inhibition of parasite growth by cell based assay; assay type: functional, organism-based; conditions: MHOM/MA/67/ITMAP263, Peritoneal macrophage
[16] = system: U-937; assay: Cytotoxicity against human U-937 cells assessed as reduction in cell viability measured after 72 hrs by MTT assay; assay type: functional; conditions: read-out: LC50 (the source's name)
[17] = system: Leishmania panamensis; assay: Antileishmanial activity against Leishmania panamensis MHOM/CO/87/UA140-EGFP intracellular amastigotes infected in U-937 cells assessed as parasite growth inhibition measured after 72 hrs by flow cytometry analysis; assay type: functional, organism-based; conditions: U-937, 72 h
[18] = system: Leishmania major; assay: Antileishmanial activity against Leishmania major axenic amastigotes assessed as parasite growth inhibition by Alamar blue assay; assay type: functional, organism-based
[19] = Cytotoxicity against mouse J774.A1 cells assessed as reduction in cell viability incubated for 48 hrs by MTT assay; assay type: toxicity, cell-based
[20] = system: Leishmania mexicana; assay: Antileishmanial activity against mammalian stage Leishmania mexicana MNYC/BZ/62/M379 axenic amastigotes assessed as inhibition of […] incubated for 24 hrs by alamar blue assay; assay type: functional; conditions: read-out: ED50 (the source's name)
[21] = molecular target: Trypanothione reductase (Leishmania donovani) (UniProt P39050); assay: Inhibition of Leishmania donovani trypanothione reductase expressed in Escherichia coli BL21(DE3) using TS2 and NADPH as substrate at 100 uM preincubated for 5 mins followed by substrate addition by DTNB-reagent based spectrophotometric method
Sequence of Trypanothione reductase (Leishmania donovani) (P39050 whole entry): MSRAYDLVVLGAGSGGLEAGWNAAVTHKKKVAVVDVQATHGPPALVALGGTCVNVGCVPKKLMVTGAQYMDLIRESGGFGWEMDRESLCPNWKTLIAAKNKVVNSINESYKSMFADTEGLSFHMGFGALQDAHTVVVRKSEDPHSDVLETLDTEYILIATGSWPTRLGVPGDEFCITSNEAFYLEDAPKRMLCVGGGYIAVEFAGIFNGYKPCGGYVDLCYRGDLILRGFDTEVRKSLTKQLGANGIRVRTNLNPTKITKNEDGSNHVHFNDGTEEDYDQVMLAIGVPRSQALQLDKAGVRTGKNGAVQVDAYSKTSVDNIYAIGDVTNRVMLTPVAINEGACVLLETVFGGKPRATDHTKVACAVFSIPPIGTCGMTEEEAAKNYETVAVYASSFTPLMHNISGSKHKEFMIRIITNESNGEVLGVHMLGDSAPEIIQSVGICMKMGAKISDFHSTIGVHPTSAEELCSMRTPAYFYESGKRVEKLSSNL

[22] = system: Leishmania donovani; assay: Antileishmanial activity against promastigote form of Leishmania donovani MHOM/IN/80/Dd8 transfected with firefly luciferase gene assessed as parasite growth inhibition incubated for 96 hrs by Steady Glo reagent based luminescence assay; assay type: functional, organism-based; conditions: MHOM/IN/80/Dd8, 96 h
[23] = system: Leishmania amazonensis; assay: Antileishmanial activity against Leishmania amazonensis (MHOM/BR/71973/M2269) intracellular amastigotes infected in mouse peritoneal macrophages assessed as parasite growth inhibition incubated for 24 hrs by Giemsa staining based light microscopy analysis; assay type: functional, organism-based; conditions: MHOM/BR/71973/M2269, Peritoneal macrophage
[24] = system: Leishmania amazonensis; assay: Antileishmanial activity against promastigote form of Leishmania amazonensis (MHOM/BR/71973/M2269) assessed as parasite growth inhibition measured after 72 hrs by Neubauer counting chamber based analysis; assay type: functional, organism-based; conditions: MHOM/BR/71973/M2269, 72 h

For `O=c1ccoc2cc(OCCCCCCCCCOc3cccc4cccnc34)ccc12`, which EC50 [1] is on record?
Its EC50 is 6.11 µg/mL.

Which EC50 [1] does the source give for `O=c1ccoc2cc(OCCCCOc3cccc4ccccc34)ccc12` here?
The EC50 was 6.11 µg/mL.

For `COC(=O)C(N)Cc1c[nH]c2ccccc12` (stereo not given), which IC50 [2] is on record?
Its IC50 is 18.2 µM.

For `Cc1cc(N2C(=O)C(Cl)=C(Cl)C2=O)ccc1[N+](=O)[O-]`, which selectivity ratio [3] is on record?
Its selectivity ratio is greater than 781.

What about the IC50 [4] of the same compound?
The IC50 was less than 0.0128 µg/mL.

For `O=C(C[Se]CC(=O)Nc1ccc([N+](=O)[O-])cc1)Nc1ccc([N+](=O)[O-])cc1`, which IC50 [5] is on record?
The IC50 was 5.67 µg/mL (≈ 13 µM).

For `CCCCC(CCCCCCC[n+]1ccn(C)c1)Oc1ccc(C(=O)/C=C/c2ccco2)cc1` (stereo not given), which EC50 [6] is on record?
The EC50 was 0.72 µM.

What about the EC50 [1] of the same compound?
The EC50 was 2.12 µM.

With `Cc1ccc(-c2nn(-c3ccccc3)cc2/C=C/c2nnc(-c3sc4ccccc4c3Cl)o2)cc1` as the compound, how does the IC50 [7] read?
Its IC50 is 73.1 µg/mL (≈ 148 µM).

What about the IC50 [8] of the same compound?
The IC50 was 19 µg/mL (≈ 38.4 µM).

With `Clc1ccc(COc2ccc(-c3nc4ccccc4o3)cc2)c(Cl)c1` as the compound, how does the IC50 [9] read?
Its IC50 is 57 µM.

Which IC50 [10] does the source give for `Clc1cccc(Nc2nnc(-c3ccc(C(c4c[nH]c5ccccc45)c4c[nH]c5ccccc45)cc3)s2)c1` here?
The IC50 was 0.7 µM.

With `C/C(=N\Nc1nc(-c2ccc(Br)cc2)cs1)c1ccccn1` as the compound, how does the IC50 [11] read?
The IC50 was 3.12 µM.

What about the CC50 at 48 h [12] of the same compound?
The CC50 at 48 h was 2.95 µM.

For `COc1cc(-c2nnc(/C=C/c3cn(-c4ccccc4)nc3-c3ccccc3)o2)cc(OC)c1OC`, which IC50 [7] is on record?
Its IC50 is 44.2 µg/mL (≈ 92 µM).

What about the IC50 [8] of the same compound?
The IC50 was 33.3 µg/mL (≈ 69.3 µM).

With `O=C(CC[Se]c1ccnc2cc(Cl)ccc12)Nc1ccc([N+](=O)[O-])cc1` as the compound, how does the IC50 [5] read?
The IC50 was 10.8 µg/mL (≈ 24.9 µM).

With `CCCCCCCCCCn1cc(COCC2CO2)[n+](C)n1` (stereo not given) as the compound, how does the IC50 [13] read?
The IC50 was 7.61 µM.

For `NC(=S)N/N=C(\C=C\c1ccc(Cl)cc1)c1ccccc1`, which IC50 [14] is on record?
The IC50 was 5.22 µM.

For `COC(=O)c1ccc(NC(=O)CSc2nc3ccc(Cl)cc3n2Cc2cc(C)cc(C)c2)c(Cl)c1`, which IC50 [15] is on record?
Its IC50 is 6.82 µM.

What does the source list for `O=C1C=C(c2ccc(C(F)(F)F)cc2)S(=O)(=O)c2ccc(F)cc21`?
CC50 [16]: 561 µM; EC50 [17]: 3.24 µM

With `Cc1cccc(Nc2nnc(-c3ccc(C(c4c[nH]c5ccccc45)c4c[nH]c5ccccc45)cc3)s2)c1` as the compound, how does the IC50 [10] read?
Its IC50 is 0.7 µM.

For `COc1ccc(-c2nn(-c3ccccc3)cc2/C=C/C(=O)c2ccc([N+](=O)[O-])cc2)cc1`, which IC50 [18] is on record?
Its IC50 is 2.3 µM.

With `O=C1c2ccccc2C(=O)N1CCn1cc(-c2ccccc2)nn1` as the compound, how does the CC50 at 48 h [19] read?
Its CC50 at 48 h is greater than 500 µM.

Which EC50 [20] does the source give for `COC(=O)[C@]12CCC(C)(C)C[C@H]1C1=CC[C@@H]3[C@@]4(C)CC[C@@H]5O[C@H](c6ccccc6C(=O)O)OC[C@@]5(C)[C@@H]4CC[C@@]3(C)[C@]1(C)CC2` here?
The EC50 was 5 µM.

Which inhibition [21] does the source give for `C=C(C1c2[nH]c3ccccc3c2CCN1C(=O)OC(C)(C)C)N(CC(=O)NC(C)(C)C)Cc1ccc(C)cc1` (stereo not given) here?
Its inhibition is 53%.

And the IC50 [22]?
Its IC50 is 0.06 µM.

For `O=C(/C=C/c1ccco1)c1ccc(OCCCCCOc2cccc3cccnc23)cc1`, which EC50 [1] is on record?
The EC50 was 13.8 µM.

What does the source list for `CC(C)COc1ccc2c(-c3ccccc3)cc(=O)oc2c1`?
IC50 [23]: 58.1 µM; IC50 [24]: 21.4 µM

For `Cn1cc[n+](CCCCCCCCOc2ccc(C(=O)/C=C/c3ccco3)cc2)c1`, which EC50 [1] is on record?
Its EC50 is 8.39 µM.

With `Cn1cc[n+](CCCOc2ccc(C(=O)/C=C/c3ccco3)cc2)c1` as the compound, how does the EC50 [1] read?
Its EC50 is 4.65 µM.

What does the source list for `CC(CCCCCCC[n+]1ccn(C)c1)Oc1ccc(C(=O)/C=C/c2ccco2)cc1` (stereo not given)?
EC50 [6]: 0.66 µM; EC50 [1]: 0.78 µM
